Measured values taken from patent US8541455B2, “Derivatives of 2-pyridin-2-yl-pyrazol-3(2H)-one, preparation and therapeutic use thereof as HIF activators” (Sanofi, priority 2008, dated 2013).

Assays:
[1] = test system: EPO secretion by Hep3B cells; assay: Measurement of the secretion of EPO by Hep3B hepatocytes (ELISA on supernatant); type: cell-based; conditions: Homo sapiens, 18 hours incubation under normoxia, EPO in supernatant, 50% of the maximum response of this same compound
Description: 2. Measurement of the Secretion of VEGF and EPO by Hep3B Hepatocytes 2.1. Object
HIF is a transcription factor involved in the adaptation of cells to hypoxia. Since the genes activated by HIF are involved in the adaptive response of cells to hypoxia and of tissues to ischaemia, the object is to identify and characterize compounds that stabilize HIF1-alpha in cells in order to amplify or mimic its beneficial effect. HIF1-alpha was identified following the analysis of the EPO gene promoter, which makes this protein one of the first markers of HIF1-alpha activation. Moreover, VEGF is also identified in the literature as one of the main markers of HIF activation. It is for this reason that measurement of these two proteins was selected for characterizing compounds that are HIF activators in Hep3B cells.
The object was thus to develop a sensitive screening test, adaptable to 96-well plates, for directly measuring the amount of VEGF and EPO in the supernatant of the Hep3B cells (cells derived from a human hepatocarcinoma) in response to the potential HIF activators.
The test is an ELISA test for measuring VEGF and EPO in the supernatant of Hep3B cells treated under hypoxia or with deferoxamine as controls or with the potential HIF activators. The test was adapted to a 96-well plate, allowing greater compound screening capacity.
• 2.3.1 Experiment Plan • 1) Inoculation of the cells on D0 • 2) Adherence for 6 hours under normoxia • 3) Preparation and addition of the products (Biomek 2000 and FX) • 4) Incubation under normoxia for 18 hours • 5) EPO and VEGF assay in the supernatant on D+1 • 2.3.2 Inoculation of the Cells
The cells are subcultured into 100 μl of culture medium (10% FCS) in black, opaque-bottomed 96-well plates (reference Costar 3916) at 30 000 cells/well, with Multidrop. • 2.3.3 Treatment of the Cells
The test products are prepared at 10^−2 M in 100% DMSO and then diluted to […] in medium containing 0.1% FCS (6 μl in 194 μl of MEM). 200 μl of each compound are deposited in column 12 of a 96-well plate. Dilution ranges from […] to 3×10^−8M are prepared with Biomek 2000 (programme: range of 9 points in series). 100 μl of MEM 0.1% FCS and Deferoxamine 5×10^−3M are added as controls to column 3 and, respectively, to wells A,B,C,D and wells E,F,G,H • DL Plate Distribution in Cell Plates
The medium of the cells inoculated the day before into 96-well plates is changed for 90 μl of medium containing 0.1% FCS and 10 μl are distributed with FX 96 from the 96-well DL plates to the cell plates.
The cell plates thus treated are placed for 18 hours in an incubator at 37° C. (ambient O2, 6% CO2).
The supernatants (80 μl) of the Hep3B cells in the 96-well plates treated with the potential HIF activators are recovered with a multichannel pipette for simultaneous assay of the VEGF and the EPO by ELISA according to the supplier's instructions (Kit EPO Mesoscale (ref K15122B-2)).
The activating activity of a compound with respect to HIF is given by the concentration that produces 50% of the maximum response of this same compound in Table IV below.

melting point | Structure (SMILES) | EC50 [1]
106 °C | Cc1[nH]n(-c2ccccn2)c(=O)c1Cc1ccccc1C(F)(F)F [Compound 188] | –
110 °C | Cc1[nH]n(-c2ccccn2)c(=O)c1Cc1ccc(N(C)C)cc1 [Compound 189] | –
96 °C | COc1ccc(Cc2c(C)[nH]n(-c3ccccn3)c2=O)cc1 [Compound 191] | –
254 °C | COc1ccccc1Cc1c(C)[nH]n(-c2ccccn2)c1=O [Compound 192] | –
120 °C | COc1cccc(Cc2c(C)[nH]n(-c3ccccn3)c2=O)c1 [Compound 193] | –
76 °C | CCc1[nH]n(-c2ccccn2)c(=O)c1Cc1ccccc1 [Compound 195] | –
128 °C | Cc1[nH]n(-c2ccccn2)c(=O)c1CCc1ccccc1 [Compound 196] | –
176 °C | Cc1[nH]n(-c2ccc(S(=O)(=O)c3ccccc3)cn2)c(=O)c1Cc1cccnc1 [Compound 197, 5-methyl-2-[5-(phenylsulfonyl)pyridin-2-yl]-4-(pyridin-3-ylmethyl)-1,2-dihydro-3H-pyrazol-3-one] | –
160 °C | CC(C)(C)COC(=O)c1ccc(-n2[nH]cc(Cc3cccnc3)c2=O)nc1 [Compound 198, 2,2-dimethylpropyl 6-[5-oxo-4-(pyridin-3-ylmethyl)-2,5-dihydro-1H-pyrazol-1-yl]pyridine-3-carboxylate] | –

Further lines, the compound ahead of its results:

Structure (SMILES) | melting point | EC50 [1]
CCN(c1ccccc1)S(=O)(=O)c1ccc(-n2[nH]c(C)c(Cc3cccc(COC)c3)c2=O)nc1 [Compound 34, N-ethyl-6-{4-[3-(methoxymethyl)benzyl]-3-methyl-5-oxo-2,5-dihydro-1H-pyrazol-1-yl}-N-phenylpyridine-3-sulfonamide] | – | 900 nM
O=c1c(Cc2ccccc2)c[nH]n1-c1ccc(S(=O)(=O)N(CC(CO)CO)C2CCCC2)cn1 [Compound 147, 6-(4-benzyl-5-oxo-2,5-dihydro-1H-pyrazol-1-yl)-N-cyclopentyl-N-[3-hydroxy-2-(hydroxymethyl)propyl]pyridine-3-sulfonamide] | > 260 °C | –
O=c1c(Cc2ccccc2)c[nH]n1-c1ccc(S(=O)(=O)N(C[C@H](O)CO)C2CCCC2)cn1 [Compound 148, 6-(4-benzyl-5-oxo-2,5-dihydro-1H-pyrazol-1-yl)-N-cyclopentyl-N-[(2S)-2,3-dihydroxypropyl]pyridine-3-sulfonamide] | 184 °C | –
O=c1c(Cc2ccccc2)c[nH]n1-c1ccc(S(=O)(=O)N[C@H]2CCC[C@@H]2O)cn1 [Compound 149] | 176 °C | –
CC(C)(C)NS(=O)(=O)c1ccc(-n2[nH]cc(Cc3ccncc3)c2=O)nc1 [Compound 150] | 226 °C | –
CN(c1ccccc1)S(=O)(=O)c1ccc(-n2[nH]cc(Cc3ccccc3)c2=O)nc1 [Compound 153] | 198 °C | –
CCOC(=O)CC(c1ccccc1)c1c[nH]n(-c2ccc(S(=O)(=O)NC(C)(C)C)cn2)c1=O (stereo not drawn) [Compound 155] | 130 °C | –
O=c1c(Cc2ccccc2)c[nH]n1-c1ccc(S(=O)(=O)NCCO)cn1 [Compound 157] | 180 °C | –
COc1ccc(Cc2c(C)[nH]n(-c3ccc(S(=O)(=O)N(C)C(C)(C)C)cn3)c2=O)nc1 [Compound 160] | 165 °C | –
Cc1[nH]n(-c2ccccn2)c(=O)c1Cc1ccccc1C#N [Compound 172] | 157 °C | –
Cc1[nH]n(-c2ccccn2)c(=O)c1Cc1ccc(C#N)cc1 [Compound 173] | 154 °C | –
Cc1[nH]n(-c2ccccn2)c(=O)c1Cc1ccncc1 [Compound 175] | 162 °C | –
Cc1[nH]n(-c2ccccn2)c(=O)c1Cc1cccc(C#N)c1 [Compound 177] | 90 °C | –
COc1cc(Cc2c(C)[nH]n(-c3ccccn3)c2=O)cc(OC)c1 [Compound 179] | 96 °C | –
Cc1[nH]n(-c2ccccn2)c(=O)c1Cc1ccc(S(C)(=O)=O)cc1 [Compound 180] | 144 °C | –
COCCOc1cccc(Cc2c(C)[nH]n(-c3ccccn3)c2=O)c1 [Compound 181] | 68 °C | –
Cc1[nH]n(-c2ccccn2)c(=O)c1Cc1ccccc1 [Compound 182] | 110 °C | –
Cc1[nH]n(-c2ccccn2)c(=O)c1Cc1cccnc1 [Compound 183] | 80 °C | –
COc1ccc(OC)c(Cc2c(C)[nH]n(-c3ccccn3)c2=O)c1 [Compound 184] | 62 °C | –
Cc1[nH]n(-c2ccccn2)c(=O)c1Cc1cccc(C(F)(F)F)c1 [Compound 185] | 78 °C | –
Cc1[nH]n(-c2ccccn2)c(=O)c1Cc1ccc(C(F)(F)F)cc1 [Compound 186] | 94 °C | –
